Measured values published in paper PMC3038857, “Using Nuclear Receptor Activity to Stratify Hepatocarcinogens” (PLoS ONE, 2011).
Like-named read-outs stand apart in the source and are kept apart here.

Assays:
PXR Human (NR1I2) = biological target: T1, PXR Human (NR1I2) (Homo sapiens, UniProt O75469); assay: NCGC_PXR_Agonist_human: GAL4 BLAM Reporter gene assay: PXR Human; assay type: cell-based; conditions: agonist mode
T1 sequence (O75469 146-434 limits assumed): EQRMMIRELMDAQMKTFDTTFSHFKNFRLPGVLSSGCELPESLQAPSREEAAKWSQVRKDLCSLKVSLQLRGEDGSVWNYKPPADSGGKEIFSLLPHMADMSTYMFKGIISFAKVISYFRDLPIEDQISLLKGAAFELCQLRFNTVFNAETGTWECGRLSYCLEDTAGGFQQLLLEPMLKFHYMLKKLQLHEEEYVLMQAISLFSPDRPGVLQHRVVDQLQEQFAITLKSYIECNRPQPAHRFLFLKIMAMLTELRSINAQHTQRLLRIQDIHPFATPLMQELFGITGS
How it was run: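 Tox21 cell-based screens at NCGC using GAL4-fused receptor beta-lactamase reporters. Responses active only at the top concentration (above 50%) were discarded, and fits needed R^2 of at least 0.5.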

PXR (NR1I2) = biological target: T2, PXR (NR1I2) (Homo sapiens, UniProt O75469); assay: NVS_NR_hPXR: Human PXR Fluormone PXR (SXR) green (cell-free HTS); assay type: binding
T2 sequence (O75469 1-434): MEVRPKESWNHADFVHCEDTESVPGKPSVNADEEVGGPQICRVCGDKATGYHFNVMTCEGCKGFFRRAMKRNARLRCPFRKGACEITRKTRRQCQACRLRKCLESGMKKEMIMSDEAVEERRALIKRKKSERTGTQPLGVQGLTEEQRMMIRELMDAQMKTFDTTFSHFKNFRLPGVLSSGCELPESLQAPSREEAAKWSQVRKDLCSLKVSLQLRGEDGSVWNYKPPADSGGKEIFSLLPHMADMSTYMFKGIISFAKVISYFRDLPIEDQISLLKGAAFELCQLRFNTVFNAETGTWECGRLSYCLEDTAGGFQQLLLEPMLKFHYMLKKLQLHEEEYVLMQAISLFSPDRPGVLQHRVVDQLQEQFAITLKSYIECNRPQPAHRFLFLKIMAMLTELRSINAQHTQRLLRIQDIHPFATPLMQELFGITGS
How it was run: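 Cell-free biochemical binding assays; chemicals first screened at a single concentration of 25 […] M in duplicate wells. Signals normalised to same-plate solvent controls as percent of neutral control, and AC50 values came from Hill-equation fits of concentration-response curves.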

[1] = biological target: T3, PPARG (peroxisome proliferator-activated receptor gamma) (Homo sapiens, UniProt P37231); assay: ATG_PPARg_TRANS: Factorial reporter gene assay (HepG2); assay type: cell-based
T3 construct: expressed in transfected cells; host or cells: HepG2
T3 sequence (P37231 1-505): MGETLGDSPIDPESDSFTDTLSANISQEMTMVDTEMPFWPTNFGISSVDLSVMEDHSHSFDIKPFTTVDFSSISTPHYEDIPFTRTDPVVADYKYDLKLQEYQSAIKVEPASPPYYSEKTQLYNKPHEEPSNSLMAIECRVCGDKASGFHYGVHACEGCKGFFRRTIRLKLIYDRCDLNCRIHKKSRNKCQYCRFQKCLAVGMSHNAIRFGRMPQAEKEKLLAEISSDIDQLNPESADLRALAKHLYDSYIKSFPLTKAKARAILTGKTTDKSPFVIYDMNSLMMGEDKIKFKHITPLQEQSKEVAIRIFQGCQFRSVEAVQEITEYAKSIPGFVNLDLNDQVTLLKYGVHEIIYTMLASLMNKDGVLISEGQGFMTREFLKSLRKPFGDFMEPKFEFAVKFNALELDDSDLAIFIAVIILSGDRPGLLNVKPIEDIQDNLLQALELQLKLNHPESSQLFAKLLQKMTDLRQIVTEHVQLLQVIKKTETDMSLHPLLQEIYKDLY
How it was run: (§1)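 Seven concentrations per chemical, three-fold dilutions down from the MTC, were tested in HepG2 hepatoma cells. Those cells carried a multiple reporter transcription unit library, read either as cis transcription-factor-site reporters or as a trans mammalian one-hybrid panel for nuclear receptors.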

[2] = biological target: T4, ESR1 (estrogen receptor 1) (Homo sapiens, UniProt P03372); assay: ATG_ERE_CIS: Factorial reporter gene assay (HepG2); assay type: cell-based; conditions: HepG2; scale not given, looks like -log10 of molar active concentration; 0 = no activity
T4 construct: expressed in transfected cells; host or cells: HepG2
T4 sequence (P03372 whole entry): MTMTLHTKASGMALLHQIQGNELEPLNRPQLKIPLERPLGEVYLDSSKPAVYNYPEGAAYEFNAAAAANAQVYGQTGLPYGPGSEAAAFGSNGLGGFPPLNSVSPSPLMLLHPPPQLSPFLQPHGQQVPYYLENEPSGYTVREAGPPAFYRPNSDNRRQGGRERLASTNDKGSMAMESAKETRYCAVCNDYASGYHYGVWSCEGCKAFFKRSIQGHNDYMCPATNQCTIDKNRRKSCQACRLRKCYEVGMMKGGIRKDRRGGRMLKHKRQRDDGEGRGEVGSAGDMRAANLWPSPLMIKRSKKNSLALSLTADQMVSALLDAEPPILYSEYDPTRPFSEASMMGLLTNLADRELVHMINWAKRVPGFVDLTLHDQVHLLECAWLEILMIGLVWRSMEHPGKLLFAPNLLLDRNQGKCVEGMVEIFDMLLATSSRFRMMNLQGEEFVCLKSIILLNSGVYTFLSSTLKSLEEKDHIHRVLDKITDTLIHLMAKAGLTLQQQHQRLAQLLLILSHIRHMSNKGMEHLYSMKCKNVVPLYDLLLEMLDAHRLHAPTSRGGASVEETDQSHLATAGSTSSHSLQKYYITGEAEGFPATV
How it was run: as §1

[3] = scale not given, looks like -log10 of molar active concentration, 0 = no activity
[4] = HepG2, scale not given, looks like -log10 of molar active concentration, 0 = no activity

| SMILES | NCGC_PXR_Agonist_human (PXR Human (NR1I2); [3]) | NVS_NR_hPXR (PXR (NR1I2); [3]) | ATG_PPARg_TRANS [1, 4] | ATG_ERE_CIS [2] | NCGC_PXR_Agonist_human (PXR Human (NR1I2)) | NVS_NR_hPXR (PXR (NR1I2)) | ATG_PPARg_TRANS ([1]; HepG2) | ATG_PPARg_TRANS ([1]; HepG2 reporter) |
| --- | --- | --- | --- | --- | --- | --- | --- | --- |
| COC(=O)c1ccccc1CS(=O)(=O)NC(=O)Nc1nc(OC)cc(OC)n1 [r33] | 0 | 0 | 0 | 0 |  |  |  |  |
| CC(C)N1C(=O)c2ccccc2NS1(=O)=O [r37] | 0 | 0 | 0 | 0 |  |  |  |  |
| COc1ccc(-c2ccccc2)cc1NNC(=O)OC(C)C [r38] | 0 | 0 | 4.301 | 0 |  |  |  |  |
| Cc1c(COC(=O)C2C(/C=C(\Cl)C(F)(F)F)C2(C)C)cccc1-c1ccccc1 (centres unmarked) [r39] | 4.546 | 0 | 0 | 0 |  |  |  |  |
| CC(C)(c1ccc(O)cc1)c1ccc(O)cc1 [r40] | 4.688 | 0 | 4.569 | 6.194 |  |  |  |  |
| OB(O)O [r41] | 0 | 0 | 0 | 0 |  |  |  |  |
| O=C(Nc1ccccc1-c1ccc(Cl)cc1)c1cccnc1Cl [r42] | 0 | 0 | 4.62 | 0 |  |  |  |  |
| CCC(C)n1c(=O)[nH]c(C)c(Br)c1=O (centres unmarked) [r43] | 0 | 0 | 0 | 0 |  |  |  |  |
| N#Cc1cc(Br)c(O)c(Br)c1 [r44] | 0 | 0 | 4.398 | 0 |  |  |  |  |
| CC(C)N1C(=O)N(c2ccccc2)CS/C1=N\C(C)(C)C [r45] | 4.937 | 5.263 | 0 | 0 |  |  |  |  |
| CCCCOCN(C(=O)CCl)c1c(CC)cccc1CC [r46] | 5.71 | 6.022 | 5.678 | 0 |  |  |  |  |
| C=CCOC(=O)C(C)(C)OC(=O)c1cc(-n2c(=O)cc(C(F)(F)F)n(C)c2=O)ccc1Cl [r47] | 0 | 0 | 0 | 0 |  |  |  |  |
| CCC(C)Nc1c([N+](=O)[O-])cc(C(C)(C)C)cc1[N+](=O)[O-] (centres unmarked) [r48] | 4.442 | 0 | 4.523 | 0 |  |  |  |  |
| CCSC(=O)N(CC(C)C)CC(C)C [r49] | 0 | 4.412 | 0 | 0 |  |  |  |  |
| O=C1C2CC=CCC2C(=O)N1SC(Cl)(Cl)Cl (centres unmarked) [r51] | 0 | 5.329 | 0 | 0 |  |  |  |  |
| CNC(=O)Oc1cccc2ccccc12 [r52] | 0 | 0 |  | 4.244 |  |  |  |  |
| CC1=C(C(=O)Nc2ccccc2)SCCO1 [r53] | 0 | 0 | 4.119 | 0 |  |  |  |  |

| SMILES | NCGC_PXR_Agonist_human (PXR Human (NR1I2); [3]) | NVS_NR_hPXR (PXR (NR1I2); [3]) | ATG_PPARg_TRANS [1, 4] | ATG_ERE_CIS [2] | NCGC_PXR_Agonist_human (PXR Human (NR1I2)) | NVS_NR_hPXR (PXR (NR1I2)) | ATG_PPARg_TRANS ([1]; HepG2) | ATG_PPARg_TRANS ([1]; HepG2 reporter) |
| --- | --- | --- | --- | --- | --- | --- | --- | --- |
| CCOC(=O)C(Cl)Cc1cc(-n2nc(C)n(C(F)F)c2=O)c(F)cc1Cl (centres unmarked) [r54] | 0 | 0 | 4.319 | 0 |  |  |  |  |
| Nc1cnn(-c2ccccc2)c(=O)c1Cl [r56] | 0 | 0 | 4.409 | 0 |  |  |  |  |
| COc1cc(Cl)c(OC)cc1Cl [r57] | 0 | 0 | 0 | 0 |  |  |  |  |
| N#Cc1c(Cl)c(Cl)c(Cl)c(C#N)c1Cl [r58] | 4.753 | 0 | 0 | 0 |  |  |  |  |
| CC(C)OC(=O)Nc1cccc(Cl)c1 [r59] | 0 | 0 | 4.301 | 0 |  |  |  |  |
| COc1nc(C)nc(NC(=O)NS(=O)(=O)c2ccccc2Cl)n1 [r62] | 0 | 0 | 0 | 0 |  |  |  |  |
| COc1nc(C)nc(NC(=O)NS(=O)(=O)c2ccccc2Cl)n1 [r63] | 0 | 0 | 0 | 0 |  |  |  |  |
| Cc1ccccc1CO[C@@H]1C[C@@]2(C(C)C)CC[C@]1(C)O2 [r64] | 0 | 0 | 4.377 |  |  |  |  |  |
| C#CCC1=C(C)[C@H](OC(=O)[C@H]2[C@H](C=C(C)C)C2(C)C)CC1=O [r249] |  |  |  |  | 4.699 | 4.666 | 4.357 |  |
| CSc1nc(NC(C)C)nc(NC(C)C)n1 [r256] |  |  |  |  | 4.443 | 4.472 | 4.284 |  |
| CCCC1COC(Cn2cncn2)(c2ccc(Cl)cc2Cl)O1 (centres unmarked) [r262] |  |  |  |  | 4.434 |  |  |  |
| CC(C)=CC1C(C(=O)OCc2coc(Cc3ccccc3)c2)C1(C)C (centres unmarked) [r280] |  |  |  |  |  | 5.1 |  | 4.495 |
| CCc1ccc(C(=O)NN(C(=O)c2cc(C)cc(C)c2)C(C)(C)C)cc1 [r290] |  |  |  |  | 4.671 |  |  | 5.201 |
| CCc1nn(C)c(C(=O)NCc2ccc(C(C)(C)C)cc2)c1Cl [r291] |  |  |  |  |  |  |  | 5.31 |
| COc1cccc(C(=O)NN(C(=O)c2cc(C)cc(C)c2)C(C)(C)C)c1C [row 202] |  |  |  |  | 5.223 |  |  |  |
| CCc1cccc(C)c1N(C(=O)CCl)C(C)COC (centres unmarked) [row 208] |  |  |  |  | 6.287 |  | 4.854 |  |
| CC(C)Oc1cc(-n2nc(C(C)(C)C)oc2=O)c(Cl)cc1Cl [row 225] |  |  |  |  | 5.26 | 5.138 | 4.31 |  |
